Test results published in patent US20080187568A1, “Polymerization with precipitation of proteins for elution in physiological solution” (priority 2007, published 2008).
Like-named read-outs stand apart in the source and are kept apart here.

Key:
[1] = cited from earlier work
[2] = pH 9.5
Description: (§1) 0.68 grams 4 arm-n-hydroxysuccinimide ester of polyethylene glycol and carboxymethylene-butyric acid, average molecular weight 10000 Daltons (Shearwater 4 arm CM-HBA-NS-10K) is dissolved in 2.82 g 0.01M phosphate buffer at pH 4.0 and is sterile filtered. Solution B is prepared by dissolving 0.025 grams trilysine and 10 mg bovine fibrinogen (purchased from Sigma Chemicals) in 3.47 g 0.1M borate buffer at pH 9.5 with 0.1 mg/mL methylene blue for visualization. 1 ml of solution A and B are mixed to promote condensation polymerization. Trilysine and PEG-NHS ester react to form a crosslinked hydrogel.
(§2) 1.41 grams 4 arm-n-hydroxysuccinimide ester of polyethylene glycol carboxymethylene-butyric acid, average molecular weight 10000 Daltons (Shearwater 4 arm CM-HBA-NS-10K) and 100 mg of Bone Morphogenetic Protein 2 (BMP-2 protein, recombinant, Sigma catalog B3555) are mixed in a solid state as lyophilized powders and are dissolved/suspended in 2.96 ml 0.1 M HCl just prior to use. Solution B is prepared by dissolving 0.06 grams dilysine (purchased from Sigma Chemicals) in 7.2 g 0.1M borate buffer at pH 9.5 with 0.1 mg/mL methylene blue for visualization. 1 ml of solution A and B are mixed to promote condensation polymerization between dilysine and PEG-NHS ester. Dilysine and PEG-NHS ester react to form a crosslinked hydrogel. HCl is neutralized by borate buffer to form a neutral/basic solution medium.
(§3) 1.37 grams 4 arm-n-hydroxysuccinimide ester of polyethylene glycol carboxymethylene-butyric acid, average molecular weight 10000 Daltons (Shearwater 4 arm CM-HBA-NS-10K) is dissolved in 5.64 g 0.01M phosphate buffer at pH 4.0 and is sterile filtered. Solution B is prepared by dissolving 0.050 grams trilysine and 100 mg paclitaxel in 6.94 g 0.1M borate buffer at pH 9.5 with 0.5 mg/mL methylene blue for visualization. […] Trilysine and PEG-NHS ester react to form a crosslinked hydrogel.

[3] = Solubility / precipitation of the agent in hydrogel precursor solutions
Description: as §1, §2, §3

CO[C@H]1/C=C/O[C@@]2(C)Oc3c(C)c(O)c4c(O)c(c(/C=N/N5CCN(C)CC5)c(O)c4c3C2=O)NC(=O)/C(C)=C\C=C\[C@H](C)[C@H](O)[C@@H](C)[C@@H](O)[C@@H](C)[C@H](OC(C)=O)[C@@H]1C [Rifampicin, rifampicin]
solubility at pH 4 [1]: 1.6 g/L | solubility at pH 7 [1]: 0.16 g/L | solubility at pH 10 [1]: 1000 g/L

Cc1c(C)c2c(c(C)c1O)CC[C@@](C)(CCC[C@H](C)CCC[C@H](C)CCCC(C)C)O2 [vitamin E, alpha-Tocopherol]
solubility in borate buffer [2]: insoluble

Fibrinogen
precipitation on mixing with PEG-NHS ester solution ([3]; fibrinogen in trilysine solution mixed with PEG-NHS ester solution): precipitated

CC(C)(C)NC[C@H](O)COc1nsnc1N1CCOCC1 [Timolol]
solubility at pH 4 [1]: 1000 g/L | solubility at pH 7 [1]: 160 g/L | solubility at pH 10 [1]: 2.4 g/L

CC(=O)O[C@H]1C(=O)[C@@]2(C)[C@H]([C@H](OC(=O)c3ccccc3)[C@]3(O)C[C@H](OC(=O)[C@H](O)[C@@H](NC(=O)c4ccccc4)c4ccccc4)C(C)=C1C3(C)C)[C@]1(OC(C)=O)CO[C@@H]1C[C@@H]2O [paclitaxel]
solubility in borate buffer ([3]; 0.1M borate buffer at pH 9.5 (solution B)): insoluble

COc1c(N2C[C@@H]3CCCN[C@@H]3C2)c(F)cc2c(=O)c(C(=O)O)cn(C3CC3)c12 [Moxifloxacin]
solubility at pH 4 [1]: 11 g/L | solubility at pH 7 [1]: 0.13 g/L | solubility at pH 10 [1]: 0.14 g/L
